Here are results for four compounds from paper PMC4306950 (Marine Drugs, 2015).

The term IC50 denotes the concentration that inhibits the measured activity by half. A low value points to greater potency.

Where only a bound is given, the exact number is not on record here.

Assay [1] addresses T1, Kv1.4 (mouse LTK fibroblasts stably transfected with Kv1.4) (Homo sapiens, UniProt P22459).
T1 construct: expressed in transfected cells
Description: Whole-cell patch-clamp electrophysiology on Kv1.4. Format: cell-based. The following applies: for block of Kv1.4 at 100 nM: mouse LTK fibroblasts stably transfected with Kv1.4, peptide 100 nM.

Assay [2] has as its target T2, hKv1.6 (HEK cells transiently transfected with hKv1.6:eGFP) (Homo sapiens, UniProt P17658).
T2 construct: expressed in transfected cells; host or cells: HEK cells, transient, Lipofectamine 2000 (plasmid a gift from Dr. Heike Wulff)
Description: Whole-cell patch-clamp electrophysiology on Kv1.6. Format: cell-based. The following applies: for block of Kv1.6 at 100 nM: HEK cells transiently transfected with hKv1.6:eGFP, patched 19 h after transfection, peptide 100 nM. How it is done: The HEK cells were patched 19 h after transfection.
(§1) Chips averaged 2–3.5 MΩ and a holding potential of −80 mV was used for all recordings. Series resistance compensation of 80% was used when currents exceeded 2 nA. The external solution was normal Ringer solution containing (in mM): 160 NaCl, 4.5 KCl, 2 CaCl2, 1 MgCl2, 10 Hepes, pH 7.4, 310 mOsm. The internal solution contained (in mM): 145 KF, 10 HEPES, 10 EGTA (ethylene glycol tetraacetic acid), 2 MgCl2, pH 7.2, 300 mOsm. Currents were elicited by repeated 200 ms pulses to 40 mV applied at intervals of 30 s for Kv1.3 and 10 s for Kv1.1. IC50 values were determined by fitting the Hill equation to the reduction of area under the current curve measured at 40 mV in the presence of different concentrations of the peptides (GraphPad Prism software, La Jolla, CA, USA).
For orientation: In patch-clamp work, channel activity is measured electrically.

The target in assay [3] is T3, mKv1.3 channels stably expressed in mouse L929 fibroblasts (Mus musculus, UniProt P16390).
T3 construct: expressed in transfected cells
Briefly: Whole-cell patch-clamp electrophysiology on Kv1.3. Format: cell-based. The following applies: mKv1.3 in L929 fibroblasts, 200 ms pulses to 40 mV every 30 s, holding -80 mV, Hill fit, n = 3 to 6 cells per concentration. How it is done:
Mouse fibroblasts stably expressing homotetramers of Kv1.1 or Kv1.3 were patch-clamped in the whole-cell configuration and steady-state block was measured after addition of different concentrations of the peptides.
as §1

For assay [4], the system named is acute adoptive EAE, animal model of MS mediated by T lymphocytes. The note with it: cited from earlier work. The text has this: The Kv1.3 channel was discovered in the early 1980’s by the Chandy and Cahalan labs at the University of California Irvine and the Deutsch lab at the University of Pennsylvania. This K^+ channel, found in T lymphocytes, was the first to be described outside electrically excitable tissues. […] Kv1.3 in T lymphocytes is a voltage-gated homotetrameric membrane protein responsible for controlling the me ...

T3 sequence (P16390 whole entry): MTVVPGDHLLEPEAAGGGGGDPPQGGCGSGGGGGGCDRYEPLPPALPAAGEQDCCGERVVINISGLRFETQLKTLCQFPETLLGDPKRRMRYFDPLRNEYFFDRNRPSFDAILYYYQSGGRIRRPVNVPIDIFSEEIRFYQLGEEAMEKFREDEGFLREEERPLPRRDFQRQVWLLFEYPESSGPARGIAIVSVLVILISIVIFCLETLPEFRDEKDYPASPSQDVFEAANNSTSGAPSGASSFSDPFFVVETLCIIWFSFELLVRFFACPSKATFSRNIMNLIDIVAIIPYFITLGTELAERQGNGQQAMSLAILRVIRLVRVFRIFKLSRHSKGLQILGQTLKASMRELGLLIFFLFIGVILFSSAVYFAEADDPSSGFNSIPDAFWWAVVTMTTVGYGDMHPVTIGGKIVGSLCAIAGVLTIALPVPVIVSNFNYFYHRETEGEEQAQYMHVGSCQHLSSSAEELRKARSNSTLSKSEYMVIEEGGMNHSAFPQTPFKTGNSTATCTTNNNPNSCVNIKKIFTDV
T2 sequence (P17658 whole entry): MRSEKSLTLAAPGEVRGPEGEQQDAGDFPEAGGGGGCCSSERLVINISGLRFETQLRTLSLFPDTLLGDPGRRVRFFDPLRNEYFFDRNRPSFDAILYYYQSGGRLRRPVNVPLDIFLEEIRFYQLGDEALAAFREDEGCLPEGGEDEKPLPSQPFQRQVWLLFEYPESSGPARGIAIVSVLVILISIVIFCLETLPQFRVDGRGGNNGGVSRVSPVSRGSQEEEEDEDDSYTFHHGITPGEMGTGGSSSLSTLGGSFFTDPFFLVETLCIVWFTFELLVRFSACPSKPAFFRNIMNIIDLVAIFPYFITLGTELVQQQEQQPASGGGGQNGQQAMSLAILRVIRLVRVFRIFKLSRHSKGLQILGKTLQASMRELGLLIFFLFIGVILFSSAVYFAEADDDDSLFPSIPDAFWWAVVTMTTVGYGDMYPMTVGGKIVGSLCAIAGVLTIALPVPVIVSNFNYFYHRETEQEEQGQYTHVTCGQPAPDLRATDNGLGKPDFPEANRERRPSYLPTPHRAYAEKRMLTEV
T1 sequence (P22459 whole entry): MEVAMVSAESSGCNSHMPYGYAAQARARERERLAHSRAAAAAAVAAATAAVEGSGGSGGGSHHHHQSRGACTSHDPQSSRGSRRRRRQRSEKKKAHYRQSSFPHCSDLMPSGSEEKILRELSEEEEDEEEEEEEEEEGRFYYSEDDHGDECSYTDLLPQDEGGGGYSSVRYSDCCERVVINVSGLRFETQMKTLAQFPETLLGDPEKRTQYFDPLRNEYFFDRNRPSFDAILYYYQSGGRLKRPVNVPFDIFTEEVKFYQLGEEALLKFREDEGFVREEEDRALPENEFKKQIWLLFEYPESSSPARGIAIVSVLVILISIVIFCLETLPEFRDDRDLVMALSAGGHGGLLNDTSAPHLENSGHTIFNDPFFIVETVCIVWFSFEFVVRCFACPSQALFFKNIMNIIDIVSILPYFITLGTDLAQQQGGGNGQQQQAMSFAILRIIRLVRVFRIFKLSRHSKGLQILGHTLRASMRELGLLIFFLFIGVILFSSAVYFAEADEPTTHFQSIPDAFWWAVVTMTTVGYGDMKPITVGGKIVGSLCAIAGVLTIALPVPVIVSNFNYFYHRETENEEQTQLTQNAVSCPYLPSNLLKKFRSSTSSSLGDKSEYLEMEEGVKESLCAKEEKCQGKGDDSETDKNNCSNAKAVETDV

For the compound `CC[C@H](C)[C@@H]1NC(=O)[C@@H](NC(=O)[C@H](CO)NC(=O)[C@@H](N)CCCNC(=N)N)CSSC[C@@H](C(=O)O)NC(=O)[C@H]([C@@H](C)O)NC(=O)CNC(=O)[C@@H]2CSSC[C@@H]3NC(=O)[C@H](CCC(N)=O)NC(=O)[C@H](Cc4ccccc4)NC(=O)[C@H](C)NC(=O)[C@H]([C@@H](C)O)NC(=O)[C@H](CSSC[C@H](NC(=O)[C@H](Cc4ccccc4)NC(=O)[C@H](CO)NC(=O)[C@H](CC(C)C)NC(=O)[C@H](CCCNC(=N)N)NC(=O)[C@H](Cc4ccc(O)cc4)NC(=O)[C@H](CCCCN)NC(=O)[C@H](CCSC)NC(=O)[C@H](CO)NC(=O)[C@H](Cc4cnc[nH]4)NC(=O)[C@H](CCCCN)NC3=O)C(=O)N[C@@H](CCCNC(=N)N)C(=O)N[C@@H](CCCCN)C(=O)N[C@@H]([C@@H](C)O)C(=O)N2)NC(=O)[C@H](CCCNC(=N)N)NC(=O)[C@H](CO)NC(=O)[C@H](CCCCN)NC(=O)[C@@H]2CCCN2C(=O)[C@H]([C@@H](C)CC)NC(=O)[C@H]([C@@H](C)O)NC(=O)[C@H](CC(=O)O)NC1=O` [ShK, reference compound], the IC50 in assay [1] turned out to be 0.312 ± 0.014 nM; in assay [2], 165 ± 8 nM; in assay [3] it was 0.0133 ± 0.0014 nM.
`CC[C@H](C)[C@@H]1NC(=O)[C@@H](NC(=O)[C@H](CO)NC(=O)[C@@H](N)CCCNC(=N)N)CSSC[C@@H](C(=O)N[C@@H](C)C(=O)O)NC(=O)[C@H]([C@@H](C)O)NC(=O)CNC(=O)[C@@H]2CSSC[C@@H]3NC(=O)[C@H](CCCCN)NC(=O)[C@H](Cc4ccccc4)NC(=O)[C@H](C)NC(=O)[C@H]([C@@H](C)O)NC(=O)[C@H](CSSC[C@H](NC(=O)[C@H](Cc4ccccc4)NC(=O)[C@H](CO)NC(=O)[C@H](CC(C)C)NC(=O)[C@H](CCCNC(=N)N)NC(=O)[C@H](Cc4ccc(O)cc4)NC(=O)[C@H](CCCCN)NC(=O)[C@H](CCSC)NC(=O)[C@H](CO)NC(=O)[C@H](Cc4c[nH]cn4)NC(=O)[C@H](CCCCN)NC3=O)C(=O)N[C@@H](CCCNC(=N)N)C(=O)N[C@@H](CCCCN)C(=O)N[C@@H]([C@@H](C)O)C(=O)N2)NC(=O)[C@H](CCCNC(=N)N)NC(=O)[C@H](CO)NC(=O)[C@H](CCCCN)NC(=O)[C@@H]2CCCN2C(=O)[C@H]([C@@H](C)CC)NC(=O)[C@H]([C@@H](C)O)NC(=O)[C@H](CC(=O)O)NC1=O` [ShK-234]: the “block of Kv1.4 at 100 nM” value in assay [1] was under 15% block at 100 nM. Besides, in assay [2], the “block of Kv1.6 at 100 nM” value was about 25%. Also, the IC50 in assay [3] is 0.037 ± 0.0046 nM.
On the same counts, the results for `CC[C@H](C)[C@@H]1NC(=O)[C@H](CO)NC(=O)[C@H](Cc2c[nH]cn2)NC(=O)[C@H](CCCCN)NC(=O)[C@@H]2CSSC[C@@H]3NC(=O)[C@H]([C@@H](C)O)NC(=O)[C@H](CCCCN)NC(=O)[C@H](CCCNC(=N)N)NC(=O)[C@H](CSSC[C@H](NC(=O)[C@H](CCCNC(=N)N)NC(=O)[C@H](CO)NC(=O)[C@H](CCCCN)NC(=O)[C@@H]4CCCN4C(=O)[C@H]([C@@H](C)CC)NC(=O)[C@H]([C@@H](C)O)NC(=O)[C@H](CC(=O)O)NC(=O)[C@H]([C@@H](C)CC)NC(=O)[C@@H](NC(=O)[C@H](CO)NC(=O)[C@@H](N)CCCNC(=N)N)CSSC[C@@H](C(=O)N[C@@H](C)C(=O)O)NC(=O)[C@H]([C@@H](C)O)NC(=O)CNC3=O)C(=O)N[C@@H]([C@@H](C)O)C(=O)N[C@@H](C)C(=O)N[C@@H](Cc3ccccc3)C(=O)N[C@@H](CCCCN)C(=O)N2)NC(=O)[C@H](Cc2ccccc2)NC(=O)[C@H](CO)NC(=O)[C@H](CC(C)C)NC(=O)[C@H](CCCNC(=N)N)NC(=O)[C@H](Cc2ccc(O)cc2)NC(=O)[C@H](CCCCN)NC1=O` [ShK-235] are under 15% block at 100 nM, about 25% and 0.062 ± 0.0132 nM.
In the case of kaliotoxin, in assay [4], the “effect on acute adoptive EAE” value is recorded as “ameliorate clinical signs”.
